# Results published in US12371460B2, “Glycan-binding proteins and related compositions and methods” (priority 2019, dated 2025).
# Target: Sulfolobus solfataricus Sso7d (rcSso7d, SEQ ID NO: 1) variant clone E, SEQ ID NO: 398 (Saccharolobus solfataricus, UniProt P61991, A45G/K22H/K28Q/K40A/K7T/K9Q/M29W/R43W/S31W/T33I/T41K/V26W/W24R)
# Experiment: biolayer interferometry, clone E immobilized on Ni-NTA tip
# Assay type: binding
# Details: 1 uM solution of the sugar; FIG. 2E
# Excerpt: The traces show an increase in nm as sugar starts binding to protein on the tip, then a decrease in nm as the tip is moved from the sugar solution to buffer only.
# Sequence of Sulfolobus solfataricus Sso7d (rcSso7d, SEQ ID NO: 1) variant clone E, SEQ ID NO: 398 (P61991 other isoform, or with tags, fused parts or gaps with the stated changes): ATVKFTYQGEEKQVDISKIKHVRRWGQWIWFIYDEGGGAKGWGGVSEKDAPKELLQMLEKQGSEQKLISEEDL
smiles,measurement,value
"CC(=O)N[C@@H]1[C@@H](O[C@@H]2O[C@H](CO)[C@H](O)[C@H](O)[C@H]2O)[C@@H](O)[C@@H](CO)O[C@@H]1O [TF antigen, Galβ1-3GalNAcα]",binding (biolayer interferometry traces),bound
